Tests used:
Format in all cases: in vivo
[1] = system: morningglory (Ipomoea spp.); experiment: Test B pre-/postemergence plant response
Summary of the method: (§1)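 Scoring used a 0–100 scale (100 = complete control) by visual comparison with untreated plants after approximately 10 days in the greenhouse. Compounds, in surfactant-containing non-phytotoxic solvent, were sprayed onto soil at planting or onto 2–10 cm seedlings.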

[2] = system: barnyardgrass (Echinochloa crus-galli); experiment: Test B pre-/postemergence plant response
Summary of the method: as §1

corn (Zea mays) = experiment: Test B pre-/postemergence plant response
Summary of the method: as §1

[3] = system: velvetleaf (Abutilon theophrasti); experiment: Test B pre-/postemergence plant response
Summary of the method: as §1

[4] = system: giant foxtail (Setaria faberii); experiment: Test B pre-/postemergence plant response
Summary of the method: as §1

[5] = system: wheat (Triticum aestivum); experiment: Test B pre-/postemergence plant response
Summary of the method: as §1

[6] = system: pigweed (Amaranthus retroflexus); experiment: Test B pre-/postemergence plant response
Summary of the method: as §1

[7] = system: large (Lg) crabgrass (Digitaria sanguinalis); experiment: Test B pre-/postemergence plant response
Summary of the method: as §1

[8] = system: barnyardgrass (Echinochloa crus-galli); experiment: Test C flooded paddy test plant response; details: Flood, 250 g ai/ha; scale of 0 to 100 where 0 is no effect and 100 is complete control; 13 to 15 days
Summary of the method: (§2)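 Readout is a visual 0–100 score (100 = complete control) versus controls at 13–15 days. Plants at 2-leaf stage, flooded to 3 cm, treated through paddy water.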

rice (Oryza sativa) = experiment: Test C flooded paddy test plant response; details: Flood, 250 g ai/ha; scale of 0 to 100 where 0 is no effect and 100 is complete control; 13 to 15 days
Summary of the method: as §2

[9] = system: small-flower umbrella sedge (Cyperus difformis); experiment: Test C flooded paddy test plant response; details: Flood, 250 g ai/ha; scale of 0 to 100 where 0 is no effect and 100 is complete control; 13 to 15 days
Summary of the method: as §2

[10] = system: ducksalad (Heteranthera limosa); experiment: Test C flooded paddy test plant response; details: Flood, 250 g ai/ha; scale of 0 to 100 where 0 is no effect and 100 is complete control; 13 to 15 days
Summary of the method: as §2

[11] = 125 g ai/ha, postemergence, 0 to 100 scale, 0 no effect, 100 complete control
[12] = Postemergence, 500 g ai/ha, 0 to 100 scale (0 no effect, 100 complete control)
[13] = Preemergence, 125 g ai/ha, 0 to 100 scale where 0 is no effect and 100 is complete control
[14] = Preemergence, 500 g ai/ha, 0 to 100 scale (0 no effect, 100 complete control)
[15] = Preemergence, 500 g ai/ha, 0 to 100 scale where 0 is no effect and 100 is complete control

| Compound | Plant response rating, Morningglory [1, 11] | Plant response rating, Morningglory [1, 12] | Plant response rating, Morningglory [1, 13] | Plant response rating, Barnyardgrass [2, 11] | Plant response rating, Barnyardgrass [2, 12] | Plant response rating, Barnyardgrass [2, 13] | Plant response rating, Corn (corn (Zea mays); [11]) | Plant response rating, Corn (corn (Zea mays); [12]) | Plant response rating, Corn (corn (Zea mays); [13]) | Plant response rating, Velvetleaf [3, 11] | Plant response rating, Velvetleaf [3, 12] | Plant response rating, Velvetleaf [3, 13] | Plant response rating, Foxtail, Giant [4, 11] | Plant response rating, Foxtail, Giant [4, 12] | Plant response rating, Foxtail, Giant [4, 13] | Plant response rating, Wheat [5, 11] | Plant response rating, Wheat [5, 12] | Plant response rating, Wheat [5, 13] | Plant response rating, Pigweed [6, 11] | Plant response rating, Pigweed [6, 12] | further results |
| --- | --- | --- | --- | --- | --- | --- | --- | --- | --- | --- | --- | --- | --- | --- | --- | --- | --- | --- | --- | --- | --- |
| Clc1cnc(Oc2ccccc2-c2nccc(Cl)n2)nc1 [Compound 18] | 0 | 0 | 0 | 0 | 0 | 0 | 0 | 0 | 0 | 0 | 0 | 0 | 0 | 0 | 0 | 0 | 0 | 0 | 0 | 0 | Plant response rating, Morningglory [1, 14]: 0; Plant response rating, Barnyardgrass [2, 14]: 0; Plant response rating, Corn (corn (Zea mays); [14]): 0; Plant response rating, Velvetleaf [3, 14]: 0; Plant response rating, Foxtail, Giant [4, 14]: 10; Plant response rating, Wheat [5, 14]: 0; Plant response rating, Pigweed [6, 13]: 0; Plant response rating, Pigweed [6, 14]: 30; Plant response rating, Crabgrass, Large [7, 11]: 0; Plant response rating, Crabgrass, Large [7, 12]: 0; Plant response rating, Crabgrass, Large [7, 13]: 0; Plant response rating, Crabgrass, Large [7, 14]: 20; Barnyardgrass plant response rating [8]: 0; Rice plant response rating (rice (Oryza sativa)): 0; Sedge, Umbrella plant response rating [9]: 0; Ducksalad plant response rating [10]: 0 |
| FC(F)(F)c1cccc(-c2ccccc2Oc2ncc(Cl)cn2)n1 [Compound 19] | 0 | 0 | 0 | 0 | 0 | 0 | 0 | 0 | 0 | 0 | 0 | 0 | 0 | 0 | 0 | 0 | 0 | 0 | 0 | 0 | Plant response rating, Morningglory [1, 14]: 0; Plant response rating, Barnyardgrass [2, 14]: 0; Plant response rating, Corn (corn (Zea mays); [14]): 0; Plant response rating, Velvetleaf [3, 14]: 0; Plant response rating, Foxtail, Giant [4, 14]: 70; Plant response rating, Wheat [5, 14]: 0; Plant response rating, Pigweed [6, 13]: 0; Plant response rating, Pigweed [6, 14]: 20; Plant response rating, Crabgrass, Large [7, 11]: 0; Plant response rating, Crabgrass, Large [7, 12]: 0; Plant response rating, Crabgrass, Large [7, 13]: 0; Plant response rating, Crabgrass, Large [7, 14]: 50; Barnyardgrass plant response rating [8]: 0; Rice plant response rating (rice (Oryza sativa)): 0; Sedge, Umbrella plant response rating [9]: 0; Ducksalad plant response rating [10]: 0 |
| FC(F)(F)c1nccc(-c2ccccc2Oc2ncc(Cl)cn2)n1 [Compound 20] | 0 | 50 | 0 | 0 | 0 | 0 | 0 | 0 | 0 | 0 | 30 | 0 | 0 | 20 | 10 | 0 | 0 | 0 | 40 | 90 | Plant response rating, Morningglory [1, 14]: 0; Plant response rating, Barnyardgrass [2, 14]: 0; Plant response rating, Corn (corn (Zea mays); [14]): 0; Plant response rating, Velvetleaf [3, 14]: 20; Plant response rating, Foxtail, Giant [4, 14]: 60; Plant response rating, Wheat [5, 14]: 0; Plant response rating, Pigweed [6, 13]: 0; Plant response rating, Pigweed [6, 14]: 20; Plant response rating, Crabgrass, Large [7, 11]: 0; Plant response rating, Crabgrass, Large [7, 12]: 20; Plant response rating, Crabgrass, Large [7, 13]: 10; Plant response rating, Crabgrass, Large [7, 14]: 70; Barnyardgrass plant response rating [8]: 0; Rice plant response rating (rice (Oryza sativa)): 0; Sedge, Umbrella plant response rating [9]: 0; Ducksalad plant response rating [10]: 0 |
| FC(F)(F)c1ccnc(-c2ccccc2Oc2ncc(Br)cn2)c1 [Compound 26] | 10 | 50 | 0 | 0 | 20 | 0 | 10 | 20 | 0 | 10 | 80 | 10 | 0 | 30 | 0 | 0 | 10 | 0 | 30 | 80 | Plant response rating, Morningglory [1, 15]: 0; Plant response rating, Barnyardgrass [2, 15]: 30; Plant response rating, Corn (corn (Zea mays); [15]): 0; Plant response rating, Velvetleaf [3, 15]: 80; Plant response rating, Foxtail, Giant [4, 15]: 90; Plant response rating, Wheat [5, 15]: 0; Plant response rating, Pigweed [6, 13]: 0; Plant response rating, Pigweed [6, 15]: 100; Plant response rating, Crabgrass, Large [7, 11]: 10; Plant response rating, Crabgrass, Large [7, 12]: 30; Plant response rating, Crabgrass, Large [7, 13]: 10; Plant response rating, Crabgrass, Large [7, 15]: 100; Barnyardgrass plant response rating [8]: 0; Rice plant response rating (rice (Oryza sativa)): 0; Sedge, Umbrella plant response rating [9]: 0; Ducksalad plant response rating [10]: 0 |

From patent US10131652B2, “Pyrimidinyloxy benzene derivatives as herbicides” (E. I. DU PONT DE NEMOURS AND COMPANY, priority 2014, dated 2018)
